Experimental data from ChEMBL document CHEMBL1133669 (J Med Chem, 2000).

target: Carbonic anhydrase 1 (Homo sapiens, UniProt P00915)
Sequence (P00915 whole entry): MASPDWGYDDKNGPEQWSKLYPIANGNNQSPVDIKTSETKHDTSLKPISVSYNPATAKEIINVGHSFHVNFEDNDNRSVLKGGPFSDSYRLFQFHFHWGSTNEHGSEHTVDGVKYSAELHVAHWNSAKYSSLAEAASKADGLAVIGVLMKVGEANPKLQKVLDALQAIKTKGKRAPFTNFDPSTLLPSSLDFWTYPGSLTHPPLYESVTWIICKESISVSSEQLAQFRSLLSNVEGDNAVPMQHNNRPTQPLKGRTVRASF
Description: Inhibitory activity against human carbonic anhydrase I (CA1)

Row | SMILES | Ki [nM]
1 | CC(C)c1cc(-c2ccccc2)cc(C(C)C)[n+]1CC(=O)Nc1nccc(Nc2ccc(S(N)(=O)=O)cc2)n1 | 47
2 | Cc1cc(-c2ccccc2)cc(C)[n+]1CC(=O)Nc1cccc(S(N)(=O)=O)c1 | 19600
3 | Cc1cc(C)[n+](CC(=O)Nc2ccc(S(=O)(=O)Nc3ccc(S(N)(=O)=O)cc3)cc2)c(C)c1 | 55
4 | CCc1cc(-c2ccccc2)cc(CC)[n+]1CC(=O)Nc1c(S(N)(=O)=O)cc(S(N)(=O)=O)c(Cl)c1Cl | 400
5 | Cc1cc(C)[n+](CC(=O)Nc2nnc(S(N)(=O)=O)s2)c(C)c1 | 300
6 | CC(C)c1cc(-c2ccccc2)cc(C(C)C)[n+]1CC(=O)Nc1ccc(S(N)(=O)=O)cc1 | 15000
7 | Cc1cc(C)[n+](CC(=O)Nc2ccc(S(N)(=O)=O)cc2Br)c(C)c1 | 800
8 | CC(C)c1cc(-c2ccccc2)cc(C(C)C)[n+]1CC(=O)OCCc1ccc(S(N)(=O)=O)cc1 | 1650
9 | Cc1cc(-c2ccccc2)cc(C)[n+]1CC(=O)Nc1ccc(S(=O)(=O)Nc2ccc(S(N)(=O)=O)cc2)cc1 | 41
10 | Cc1cc(-c2ccccc2)cc(C)[n+]1CC(=O)Nc1ccc(S(=O)(=O)Nc2nnc(S(N)(=O)=O)s2)cc1 | 10
11 | CCc1cc(-c2ccccc2)cc(CC)[n+]1CC(=O)NCc1ccc(S(N)(=O)=O)cc1 | 1400
12 | Cc1cc(C)[n+](CC(=O)/N=c2/sc(S(N)(=O)=O)nn2C)c(C)c1 | 330
13 | CCc1cc(-c2ccccc2)cc(CC)[n+]1CC(=O)Nc1ccc(S(=O)(=O)Nc2cccc(S(N)(=O)=O)c2)cc1 | 43
14 | Cc1cc(-c2ccccc2)cc(C)[n+]1CC(=O)Nc1ccc(S(=O)(=O)Nc2cccc(S(N)(=O)=O)c2)cc1 | 38
15 | CCc1cc(-c2ccccc2)cc(CC)[n+]1CC(=O)Nc1cccc(S(N)(=O)=O)c1 | 21800
16 | CC(C)c1cc(-c2ccccc2)cc(C(C)C)[n+]1CC(=O)NCCc1ccc(S(N)(=O)=O)cc1 | 775

Row | SMILES | Ki [nM]
17 | CC(C)c1cc(-c2ccccc2)cc(C(C)C)[n+]1CC(=O)Nc1c(S(N)(=O)=O)cc(S(N)(=O)=O)c(Cl)c1Cl | 470
18 | Cc1cc(-c2ccccc2)cc(C)[n+]1CC(=O)NCCc1ccc(S(N)(=O)=O)cc1 | 720
19 | CC(C)c1cc(-c2ccccc2)cc(C(C)C)[n+]1CC(=O)Nc1ccc(S(N)(=O)=O)cc1Br | 645
20 | Cc1cc(C)[n+](CC(=O)Nc2c(S(N)(=O)=O)cc(S(N)(=O)=O)c(Cl)c2Cl)c(C)c1 | 550
21 | Cc1cc(C)[n+](CC(=O)Nc2nccc(Nc3ccc(S(N)(=O)=O)cc3)n2)c(C)c1 | 52
22 | CCc1cc(-c2ccccc2)cc(CC)[n+]1CC(=O)Nc1ccc(S(N)(=O)=O)cc1I | 620
23 | Cc1cc(-c2ccccc2)cc(C)[n+]1CC(=O)Nc1ccc(S(N)(=O)=O)cc1I | 610
24 | CC(C)c1cc(-c2ccccc2)cc(C(C)C)[n+]1CC(=O)Nc1ccc2nc(S(N)(=O)=O)sc2c1 | 13
25 | CCc1cc(-c2ccccc2)cc(CC)[n+]1CC(=O)/N=c1/sc(S(N)(=O)=O)nn1C | 300
26 | CC(C)c1cc(-c2ccccc2)cc(C(C)C)[n+]1CC(=O)Nc1ccc(S(=O)(=O)Nc2cccc(S(N)(=O)=O)c2)cc1 | 53
27 | Cc1cc(C)[n+](CC(=O)OCCc2ccc(S(N)(=O)=O)cc2)c(C)c1 | 1700
28 | Cc1cc(-c2ccccc2)cc(C)[n+]1CC(=O)NNc1ccc(S(N)(=O)=O)cc1 | 26000
29 | CC(C)c1cc(-c2ccccc2)cc(C(C)C)[n+]1CC(=O)Nc1ccc(S(=O)(=O)Nc2ccc(S(N)(=O)=O)cc2)cc1 | 50
30 | CCc1cc(-c2ccccc2)cc(CC)[n+]1CC(=O)Nc1ccc(S(N)(=O)=O)cc1Cl | 610
31 | Cc1cc(C)[n+](CC(=O)Nc2cccc(S(N)(=O)=O)c2)c(C)c1 | 24000

target: T1, Carbonic anhydrase 4 (Bos taurus, UniProt Q95323)
T1 sequence (Q95323 whole entry): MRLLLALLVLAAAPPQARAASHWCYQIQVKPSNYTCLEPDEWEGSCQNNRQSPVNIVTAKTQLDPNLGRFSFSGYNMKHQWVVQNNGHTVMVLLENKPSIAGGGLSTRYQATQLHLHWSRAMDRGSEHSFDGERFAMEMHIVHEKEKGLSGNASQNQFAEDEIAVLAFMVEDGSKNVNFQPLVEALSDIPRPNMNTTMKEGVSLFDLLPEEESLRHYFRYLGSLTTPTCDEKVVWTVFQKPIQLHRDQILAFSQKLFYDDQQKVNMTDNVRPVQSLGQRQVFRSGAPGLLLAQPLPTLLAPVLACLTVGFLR
Description: Inhibitory activity against bovine carbonic anhydrase IV (CA4), isolated from bovine lung microsomes

Row | SMILES | Ki [nM]
32 | CC(C)c1cc(-c2ccccc2)cc(C(C)C)[n+]1CC(=O)NCCC(=O)Nc1nnc(S(N)(=O)=O)s1 | 16
33 | CC(C)c1cc(-c2ccccc2)cc(C(C)C)[n+]1CC(=O)Nc1nnc(S(N)(=O)=O)s1 | 36
34 | CCc1cc(-c2ccccc2)cc(CC)[n+]1CC(=O)NCCC(=O)Nc1nnc(S(N)(=O)=O)s1 | 19
35 | CC(C)c1cc(-c2ccccc2)cc(C(C)C)[n+]1CC(=O)Nc1nccc(Nc2ccc(S(N)(=O)=O)cc2)n1 | 62
36 | Cc1cc(-c2ccccc2)cc(C)[n+]1CC(=O)Nc1cccc(S(N)(=O)=O)c1 | 280
37 | Cc1cc(C)[n+](CC(=O)Nc2ccc(S(=O)(=O)Nc3ccc(S(N)(=O)=O)cc3)cc2)c(C)c1 | 78
38 | CCc1cc(-c2ccccc2)cc(CC)[n+]1CC(=O)Nc1c(S(N)(=O)=O)cc(S(N)(=O)=O)c(Cl)c1Cl | 35
39 | Cc1cc(C)[n+](CC(=O)Nc2nnc(S(N)(=O)=O)s2)c(C)c1 | 50
40 | CC(C)c1cc(-c2ccccc2)cc(C(C)C)[n+]1CC(=O)Nc1ccc(S(N)(=O)=O)cc1 | 180
41 | Cc1cc(C)[n+](CC(=O)Nc2ccc(S(N)(=O)=O)cc2Br)c(C)c1 | 77
42 | CC(C)c1cc(-c2ccccc2)cc(C(C)C)[n+]1CC(=O)OCCc1ccc(S(N)(=O)=O)cc1 | 115
43 | Cc1cc(-c2ccccc2)cc(C)[n+]1CC(=O)Nc1ccc(S(=O)(=O)Nc2ccc(S(N)(=O)=O)cc2)cc1 | 54
44 | Cc1cc(-c2ccccc2)cc(C)[n+]1CC(=O)Nc1ccc(S(=O)(=O)Nc2nnc(S(N)(=O)=O)s2)cc1 | 9
45 | CCc1cc(-c2ccccc2)cc(CC)[n+]1CC(=O)NCc1ccc(S(N)(=O)=O)cc1 | 67
46 | Cc1cc(C)[n+](CC(=O)/N=c2/sc(S(N)(=O)=O)nn2C)c(C)c1 | 60
47 | CCc1cc(-c2ccccc2)cc(CC)[n+]1CC(=O)Nc1ccc(S(=O)(=O)Nc2cccc(S(N)(=O)=O)c2)cc1 | 60
48 | Cc1cc(-c2ccccc2)cc(C)[n+]1CC(=O)Nc1ccc(S(=O)(=O)Nc2cccc(S(N)(=O)=O)c2)cc1 | 55
49 | CCc1cc(-c2ccccc2)cc(CC)[n+]1CC(=O)Nc1cccc(S(N)(=O)=O)c1 | 310

Row | SMILES | Ki [nM]
50 | CC(C)c1cc(-c2ccccc2)cc(C(C)C)[n+]1CC(=O)NCCc1ccc(S(N)(=O)=O)cc1 | 70
51 | CC(C)c1cc(-c2ccccc2)cc(C(C)C)[n+]1CC(=O)Nc1c(S(N)(=O)=O)cc(S(N)(=O)=O)c(Cl)c1Cl | 49
52 | Cc1cc(-c2ccccc2)cc(C)[n+]1CC(=O)NCCc1ccc(S(N)(=O)=O)cc1 | 46
53 | CC(C)c1cc(-c2ccccc2)cc(C(C)C)[n+]1CC(=O)Nc1ccc(S(N)(=O)=O)cc1Br | 70
54 | Cc1cc(C)[n+](CC(=O)Nc2c(S(N)(=O)=O)cc(S(N)(=O)=O)c(Cl)c2Cl)c(C)c1 | 67
55 | Cc1cc(C)[n+](CC(=O)Nc2nccc(Nc3ccc(S(N)(=O)=O)cc3)n2)c(C)c1 | 69
56 | CCc1cc(-c2ccccc2)cc(CC)[n+]1CC(=O)Nc1ccc(S(N)(=O)=O)cc1I | 64
57 | Cc1cc(-c2ccccc2)cc(C)[n+]1CC(=O)Nc1ccc(S(N)(=O)=O)cc1I | 59
58 | CC(C)c1cc(-c2ccccc2)cc(C(C)C)[n+]1CC(=O)Nc1ccc2nc(S(N)(=O)=O)sc2c1 | 38
59 | CCc1cc(-c2ccccc2)cc(CC)[n+]1CC(=O)/N=c1/sc(S(N)(=O)=O)nn1C | 25
60 | CC(C)c1cc(-c2ccccc2)cc(C(C)C)[n+]1CC(=O)Nc1ccc(S(=O)(=O)Nc2cccc(S(N)(=O)=O)c2)cc1 | 72
61 | Cc1cc(C)[n+](CC(=O)OCCc2ccc(S(N)(=O)=O)cc2)c(C)c1 | 130
62 | Cc1cc(-c2ccccc2)cc(C)[n+]1CC(=O)NNc1ccc(S(N)(=O)=O)cc1 | 310
63 | CC(C)c1cc(-c2ccccc2)cc(C(C)C)[n+]1CC(=O)Nc1ccc(S(=O)(=O)Nc2ccc(S(N)(=O)=O)cc2)cc1 | 73
64 | CCc1cc(-c2ccccc2)cc(CC)[n+]1CC(=O)Nc1ccc(S(N)(=O)=O)cc1Cl | 46
65 | Cc1cc(-c2ccccc2)cc(C)[n+]1CC(=O)NCCC(=O)Nc1nnc(S(N)(=O)=O)s1 | 15
66 | Cc1cc(C)[n+](CC(=O)Nc2cccc(S(N)(=O)=O)c2)c(C)c1 | 410
67 | Nc1cc(C(F)(F)F)c(S(N)(=O)=O)cc1S(N)(=O)=O [2,4-DISULFAMYLTRIFLUOROMETHYLANILINE] | 140
